Experimental data as given in patent publication US20250288553A1, “Antimicrobial Compositions and Uses for Treatment of Clostridioides difficile, Mycobacterium tuberculosis, and Enterococcus faecalis Infection” (priority 2022, published 2025).
pIC50: −log10 of the molar value. Converted amounts (≈) assume the structure as drawn.

Experiments:
[1] = system: Bacillus subtilis ATCC 23857; assay: MIC against B. subtilis, REMA; conditions: REMA, visual, 24 h
[2] = system: Clostridioides difficile NAP1; assay: MIC against C. difficile NAP1, modified broth microdilution; conditions: for MIC C. difficile: NAP1, modified broth microdilution, 48 h, anaerobic
[3] = system: replicating Mtb-lux (Mycobacterium tuberculosis CDC1551 with pMV306hsp+LuxG13); type: cell-based
[4] = system: TcdA production in C. difficile NAP1; assay: Toxin analysis: extracellular TcdA of C. difficile NAP1 at sub-MICs, western blot; type: cell-based, Clostridioides difficile; conditions: NAP1 challenged with 0.5×, 0.25×, 0.125× MIC, 48 h, TcdA normalized to total protein
Procedure: After a 48 h incubation of NAP1 challenged with several dilutions of each compound, extracellular toxin in spent media derived from triplicate cultures was assessed with western blots using a monoclonal antibody against TcdA. Semi-quantitative analysis of toxin levels was performed via densitometry of TcdA band intensity with respect to total protein as measured by the Bradford assay. Semi-quantitative plots are shown below each representative blot. (a) Toxin production in BHIS (NAP1) and BHIS with 5% DMSO (vehicle). (b) Toxin production from cultures challenged with sub-MICs of fidaxomicin, (c) vancomycin, and (d-j) (+)-puupehenone and selected derivatives. Data points represent the means of adjusted toxin levels derived from triplicate cultures, while error bars represent standard deviations. Statistical analysis was performed in GraphPad Prism 8 using unpaired t-tests. *P<0.05; **P<0.01.
To account for changes in biomass, a semi-quantitative analysis of TcdA production was performed by normalizing the target bands from representative western blots to the amount of total protein in each sample.
Toxin analysis. Toxin production was determined by analyzing the amount of extracellular toxin in the cultures from the ASTs described above. At 48 h, total protein of each culture was determined with the Bradford assay using bovine serum albumin (BSA) as a standard.^53 Cultures were then centrifuged at 5,000×g for 5 minutes to clear the supernatants which were separately collected and frozen at −20° C. After thawing at room temperature, cell-free supernatants were mixed 1:1 with 2× Laemmli buffer and incubated in a sand bath at 100° C. for 5 minutes. Twenty microliters of denatured samples were loaded onto 7.5% Tris-glycine gels and electrophoresed at 200 V for 1 h. After electrophoresis, samples were transferred to polyvinylidene difluoride membranes at 4° C. overnight at 30 V. Membranes were incubated in a blocking buffer (20 mM Tris-HCl, 150 mM NaCl, 0.01 mM ethylenediaminetetraacetic acid, 0.1% Tween 20, 1% BSA, [pH 7.5]) for 1 h at room temperature. TcdA was detected with a monoclonal mouse anti-TcdA antibody (PCG4.1, Novus Biologicals) and a rabbit anti-mouse antibody conjugated with alkaline phosphatase. Blots were visualized with a ChemiDoc XRS+ imaging system (Bio-Rad).
Semi-quantitative analysis of TcdA was performed using Image Lab 6.0 software (Bio-Rad). Briefly, after subtracting background noise, peaks corresponding to the target band were selected with the software's Lane Profile tool. The density of each peak generated a value (arbitrary units) that was normalized to the total protein amount of each respective sample. […] These losses of activity prevented us from performing statistical analysis from multiple experiments, as the sub-MICs were not always the same. Since there were no changes to the methodology described, several other reasons could have accounted for decreased activity, such as compound stability, freeze-thaw, and adherence to plastic. Nevertheless, the toxin results were reproducible, irrespective of the exact sub-MICs on different days.

[5] = system: Staphylococcus aureus ATCC 25923; assay: MIC against S. aureus, REMA; conditions: visual, 24 h
[6] = system: Enterococcus faecalis ATCC 29212; assay: MIC against E. faecalis, REMA; conditions: REMA, visual, 24 h
[7] = system: dormant Mtb-lux (Mycobacterium tuberculosis CDC1551 with pMV306hsp+LuxG13); type: cell-based; conditions: for R/D (MICR/MICD, Mtb-lux): ratio replicating MIC to dormant MIC
[8] = system: dormant Mtb; conditions: earlier screen (ref 12); cited from earlier work
[9] = system: active Mtb; conditions: earlier screen (ref 12); cited from earlier work
[10] = system: Mtb; conditions: at a concentration of 12.5 μg/mL; cited from earlier work
[11] = system: HepG2 (human liver carcinoma) cell line; assay: Cytotoxicity assay HepG2
[12] = Cytotoxicity assay HepG2; conditions: human
[13] = system: M. smegmatis mc^2155 ATCC 700084; assay: MIC against M. smegmatis, REMA; type: cell-based, Mycobacterium smegmatis; conditions: Mycolicibacterium smegmatis, ATCC700084|MC^2155; determined visually by REMA assay, 24-hour incubation
[14] = system: J774A.1 (murine macrophage-like) cell line; assay: Cytotoxicity assay J774A.1; type: cell-based
Procedure: (§1) To evaluate the selectivity of the top six compounds from the Mtb-lux activity screen (Table 2), cytotoxicity for two different mammalian cell lines was determined. The IC50 was calculated for each compound against J774A.1 and HepG2 cell lines. The selectivity index (SI) for both replicating and dormant conditions was then calculated by taking the IC50 and dividing it by the corresponding MIC (SIR=IC50/MICR, SID=IC50/MICD)^40. Consistent with the experience, the J774 macrophage cell line was more sensitive to all compounds tested. […] Based on these observations, this triacetate protected puupehenone represents a promising candidate for further optimization.
(§2) Cytotoxicity assay: Cytotoxicity was assessed using J774A.1 (murine macrophage-like) and HepG2 (human liver carcinoma) cell lines using 2-fold dilution of the compounds as described previously^42, 43. IC50 values were determined using nonlinear regression fitting of the databy GraphPad Prism. The selectivity Index (SI) was calculated as IC50/MIC.

[15] = Cytotoxicity assay J774A.1; type: cell-based, murine; conditions: mouse, J774A.1 macrophage-like cells; J774A.1 cells; read-out: Cytotoxicity (IC50) J774
Procedure: as §1, §2

[16] = system: Mycobacterium tuberculosis H37Ra ATCC 25177; assay: MIC against Mtb H37Ra, resazurin microtiter assay (REMA); type: cell-based; conditions: Mycobacterium tuberculosis, 336 h, determined visually by REMA assay, 14-day incubation; read-out: MIC Mtb H37Ra

Compound	MIC C. difficile [2] [µg/mL]	MICR (Mtb-lux) [3] [µg/mL]	Effect on TcdA toxin production [4]	MICD (Mtb-lux) [7] [µg/mL]	R/D (MICR/MICD, Mtb-lux) [7]	MIC in multistress dormancy model of Mtb [8] [µg/mL]	MIC against active Mtb [9] [µg/mL]	inhibition of Mtb [10] [%]	further results
CC1(C)CCCC2(C)C1CCC(C)(O)C2Cc1ccc(O)cc1 (stereo not shown) [Compound 34]	16.0 (≈ 50.6 µM)	114.3	decreased the amount of toxin in a similar concentration-dependent manner	30.9	3.7				MIC B. subtilis [1]: 7.9 µg/mL (≈ 25 µM); MIC S. aureus [5]: 16.9 µg/mL (≈ 53.4 µM); MIC E. faecalis [6]: 15.8 µg/mL (≈ 49.9 µM)
CO[C@@H]1c2cc(O)c(O)cc2O[C@@]2(C)CCC3C(C)(C)CCC[C@]3(C)[C@@H]12 (stereo partly drawn) [Compound 3, 15-α-methoxypuupehenol]						0.5	11.3 (≈ 31.3 µM)		
CC1(C)CCC[C@]2(C)[C@H]3C(C#N)=C4C=C(O)C(=O)C=C4O[C@@]3(C)CC[C@@H]12 [Compound 5, 15-cyanopuupehenone]								90	
CC1(C)CCC[C@]2(C)C3=CC4=CC(=O)C(=O)C=C4O[C@@]3(C)CC[C@@H]12 [Compound 2, Puupehedione]						15.4	87.6 (≈ 268 µM)		
CO[C@@H]1c2cc(OC(C)=O)c(OC(C)=O)cc2O[C@@]2(C)CC[C@H]3C(C)(C)CCC[C@]3(C)[C@@H]12 [Compound 15]	4.0 (≈ 9 µM)	8.9	decreased the amount of toxin in a similar concentration-dependent manner	1.7	5.2				SI (SID) HepG2 [11]: 62.9; SI (SIR) HepG2 [11]: 12.0; pIC50 [12]: ~3.97; MIC [13]: 22.2 µg/mL (≈ 49.9 µM); MIC ([2]; Clostridioides difficile, NAP1, 48 h, read-out: MIC C. difficile, NAP1, modified broth microdilution, 48 h, anaerobic): 2 to 4 µg/mL (≈ 4.5 to 9 µM); SI (SID) J774 [14]: 34.8; SI (SIR) J774 [14]: 6.6; pIC50 [15]: 4.23; MIC [16]: 2.7 µg/mL (≈ 6.07 µM)
CC1(C)CCC[C@]2(C)[C@H]3[C@H](C#N)c4cc(O)c(O)cc4O[C@@]3(C)CC[C@@H]12 [Compound 4, 15-α-cyanopuupehenol]								96	
